Experimental findings from ChEMBL document CHEMBL1144584, “Identification of novel short chain 4-substituted indoles as potent alphavbeta3 antagonist using structure-based drug design” (Eur J Med Chem, 2007) are described below.

What is called IC50 is the midpoint of a concentration-inhibition curve. For orientation: Papp A→B means how fast a substance crosses the layer from the apical side. In general, Papp B→A refers to the apparent permeability from the basolateral to the apical side of a cell layer.

A short description of series [1]: Binding affinity to Integrin alpha-2b-beta-3a receptor by ELISA assay. On the set-up: species or system Homo sapiens. Background: An ELISA detects its analyte on a solid surface through an enzyme-linked reagent.
A further series concerns the target Integrin alpha-V/beta-3 (Homo sapiens, UniProt P05106+P06756). Description: Binding affinity to Integrin alpha-v-beta-3 receptor by ELISA assay. In kind it is protein-complex assay.
A further series deals with Integrin alpha-V/beta-5 (Homo sapiens, UniProt P06756+P18084). Nature of the series: Binding affinity to Integrin alpha-v-beta-5 receptor by ELISA assay. In kind it is protein-complex assay.
Integrin alpha-V/beta-5, sequence (P06756 31-889 limits assumed): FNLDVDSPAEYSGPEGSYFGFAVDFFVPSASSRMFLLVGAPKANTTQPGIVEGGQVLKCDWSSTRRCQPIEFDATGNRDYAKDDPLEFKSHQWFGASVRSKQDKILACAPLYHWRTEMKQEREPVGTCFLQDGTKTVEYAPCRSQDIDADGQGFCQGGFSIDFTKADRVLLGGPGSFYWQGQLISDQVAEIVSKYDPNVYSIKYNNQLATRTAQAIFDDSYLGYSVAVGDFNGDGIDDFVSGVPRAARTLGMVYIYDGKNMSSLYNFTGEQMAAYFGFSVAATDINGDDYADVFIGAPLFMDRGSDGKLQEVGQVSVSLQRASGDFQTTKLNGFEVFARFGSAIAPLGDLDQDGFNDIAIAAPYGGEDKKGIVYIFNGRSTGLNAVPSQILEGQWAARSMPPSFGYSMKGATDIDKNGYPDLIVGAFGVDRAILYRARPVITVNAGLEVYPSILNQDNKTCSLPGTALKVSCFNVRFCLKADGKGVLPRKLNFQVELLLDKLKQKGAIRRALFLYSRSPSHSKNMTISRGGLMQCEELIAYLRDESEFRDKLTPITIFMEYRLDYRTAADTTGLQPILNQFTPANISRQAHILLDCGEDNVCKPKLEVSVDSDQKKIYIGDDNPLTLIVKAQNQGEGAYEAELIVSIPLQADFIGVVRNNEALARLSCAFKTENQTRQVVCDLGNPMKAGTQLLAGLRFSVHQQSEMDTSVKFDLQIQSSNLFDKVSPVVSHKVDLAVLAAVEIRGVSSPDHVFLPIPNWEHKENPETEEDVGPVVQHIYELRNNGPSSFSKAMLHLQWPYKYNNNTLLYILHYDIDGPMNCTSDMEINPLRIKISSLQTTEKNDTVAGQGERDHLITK
Integrin alpha-V/beta-5, sequence (P06756 891-1048 limits assumed): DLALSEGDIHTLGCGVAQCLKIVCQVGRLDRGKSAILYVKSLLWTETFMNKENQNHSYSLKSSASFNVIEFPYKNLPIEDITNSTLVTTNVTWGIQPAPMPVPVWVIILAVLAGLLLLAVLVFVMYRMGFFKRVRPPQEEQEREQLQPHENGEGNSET
Integrin alpha-V/beta-5, sequence (P18084 24-799 limits assumed): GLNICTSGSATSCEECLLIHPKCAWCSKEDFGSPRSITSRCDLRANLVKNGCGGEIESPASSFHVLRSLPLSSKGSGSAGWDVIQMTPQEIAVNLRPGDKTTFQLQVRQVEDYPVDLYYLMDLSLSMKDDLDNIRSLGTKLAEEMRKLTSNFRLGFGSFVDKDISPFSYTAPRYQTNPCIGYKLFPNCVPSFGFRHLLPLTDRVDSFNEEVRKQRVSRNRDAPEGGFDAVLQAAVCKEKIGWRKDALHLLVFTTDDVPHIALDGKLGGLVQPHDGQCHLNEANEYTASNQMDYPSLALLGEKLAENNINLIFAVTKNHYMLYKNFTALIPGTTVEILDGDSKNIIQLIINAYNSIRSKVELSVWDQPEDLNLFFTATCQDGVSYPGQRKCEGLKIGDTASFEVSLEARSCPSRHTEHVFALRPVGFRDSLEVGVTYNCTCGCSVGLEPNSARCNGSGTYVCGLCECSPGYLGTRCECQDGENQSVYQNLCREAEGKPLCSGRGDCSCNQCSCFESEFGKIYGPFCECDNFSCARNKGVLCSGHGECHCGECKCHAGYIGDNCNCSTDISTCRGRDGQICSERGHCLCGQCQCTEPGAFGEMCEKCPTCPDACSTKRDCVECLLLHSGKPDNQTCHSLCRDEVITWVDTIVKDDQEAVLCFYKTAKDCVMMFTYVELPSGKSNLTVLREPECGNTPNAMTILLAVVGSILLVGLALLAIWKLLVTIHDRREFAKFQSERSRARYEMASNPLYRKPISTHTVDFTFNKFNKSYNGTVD
A short description of series [2]: Binding affinity to Integrin […] receptor by ELISA assay. On the set-up: species or system Homo sapiens.
Series [3] in a line: Permeability from apical to basolateral side of human Caco-2 cell membrane. In kind it is ADME, cell-based. On the technique in general: Caco-2 monolayers are a common model of the intestinal barrier.
Series [4] can be described thus: Permeability from basolateral to apical side of human Caco-2 cell membrane. In kind it is ADME, cell-based.

Integrin alpha-V/beta-3, sequence (P05106 27-788 limits assumed): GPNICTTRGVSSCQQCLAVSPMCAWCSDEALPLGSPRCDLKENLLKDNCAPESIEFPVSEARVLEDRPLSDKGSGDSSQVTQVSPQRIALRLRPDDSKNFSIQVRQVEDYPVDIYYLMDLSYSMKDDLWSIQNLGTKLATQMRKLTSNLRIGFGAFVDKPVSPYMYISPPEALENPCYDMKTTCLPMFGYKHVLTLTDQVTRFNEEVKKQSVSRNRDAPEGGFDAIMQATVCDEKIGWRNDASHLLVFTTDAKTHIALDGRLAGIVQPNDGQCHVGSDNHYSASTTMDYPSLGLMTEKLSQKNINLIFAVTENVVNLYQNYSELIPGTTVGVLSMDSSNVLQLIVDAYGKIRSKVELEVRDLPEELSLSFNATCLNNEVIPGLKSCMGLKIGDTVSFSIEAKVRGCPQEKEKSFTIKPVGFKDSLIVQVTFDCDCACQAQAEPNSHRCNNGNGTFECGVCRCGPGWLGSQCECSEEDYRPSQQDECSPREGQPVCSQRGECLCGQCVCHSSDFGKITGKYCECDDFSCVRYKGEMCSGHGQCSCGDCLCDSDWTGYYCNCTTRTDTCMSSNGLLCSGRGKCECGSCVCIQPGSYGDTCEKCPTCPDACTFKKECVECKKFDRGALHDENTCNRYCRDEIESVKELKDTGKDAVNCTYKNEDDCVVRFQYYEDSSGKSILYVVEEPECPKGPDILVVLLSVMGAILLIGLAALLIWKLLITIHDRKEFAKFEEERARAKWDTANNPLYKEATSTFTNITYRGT
Integrin alpha-V/beta-3, sequence (P06756 31-889 limits assumed): as the sequence (P06756 31-889 limits assumed) above
Integrin alpha-V/beta-3, sequence (P06756 891-1048 limits assumed): as the sequence (P06756 891-1048 limits assumed) above

With `O=C(O)CC(c1ccccc1)n1ccc2cc(CCCc3ccc4c(n3)NCCC4)ccc21` (centres undefined), the IC50 in series [1] is more than 1000 nM; on Integrin alpha-V/beta-3, 14 nM; on Integrin alpha-V/beta-5, 15 nM; in series [2], 1100 nM.
Take `O=C(O)CC(c1cccnc1)n1ccc2c(NCc3ccc4c(n3)NCCC4)cccc21` (centres undefined): the IC50 was more than 1000 nM in series [1], 4.4 nM at Integrin alpha-V/beta-3, 11 nM on Integrin alpha-V/beta-5 and 9400 nM in series [2].
For the molecule `O=C(O)CC(c1cccnc1)n1ccc2c(CCc3ccc4c(n3)NCCC4)cccc21` (centres undefined), the IC50 in series [1] was more than 1000 nM; at Integrin alpha-V/beta-3 it was 0.5 nM; at Integrin alpha-V/beta-5 it was 0.96 nM; in series [2] it was 250 nM. For the same molecule, in series [3], the Papp A→B was found to be 2.2 ×10⁻⁶ cm/s. The molecule also yielded a Papp B→A in series [4] of 2.5 ×10⁻⁶ cm/s.
Turning to `O=C(O)CC(c1cccnc1)n1ccc2cc(OCCc3ccc4c(n3)NCCC4)ccc21` (centres undefined), the IC50 in series [1] was more than 1000 nM; on Integrin alpha-V/beta-5, 0.21 nM; in series [2], 15 nM.
For the molecule `CC(C)[C@H]1C(=O)N[C@@H](CCCNC(=N)N)C(=O)NCC(=O)N[C@@H](CC(=O)O)C(=O)N[C@H](Cc2ccccc2)C(=O)N1C` [CILENGITIDE], the figures for the IC50 in series [1] and in series [2] were more than 1000 nM and 14 nM, respectively.
Regarding `O=C(O)CC(c1ccccc1)n1ccc2cc(OCCc3ccc4c(n3)NCCC4)ccc21` (centres undefined), the values for the IC50 (in series [1]; at Integrin alpha-V/beta-5; in series [2]) were more than 1000 nM, 0.68 nM and 41 nM, respectively.
As to `O=C(O)CC(c1ccccc1)n1ccc2c(CCc3ccc4c(n3)NCCC4)cccc21` (centres undefined), the IC50 in series [1] was more than 1000 nM; on Integrin alpha-V/beta-3 it was 0.96 nM; on Integrin alpha-V/beta-5 it was 1.1 nM; in series [2], 107 nM.
As to `O=C(O)CC(c1ccc2c(c1)OCO2)n1ccc2cc(OCCc3ccc4c(n3)NCCC4)ccc21` (centres undefined), the IC50 was more than 1000 nM in series [1], 0.5 nM on Integrin alpha-V/beta-5 and 24 nM in series [2].
